Assay results: the supplement of paper PMC10307832

What was measured:
Test in all cases: relative viability (nuclei count vs DMSO), 5 days (fraction); higher = more cells survive
[1] = compound: C[As](C)SC[C@H](NC(=O)CC[C@H](N)C(=O)O)C(=O)NCC(=O)O [Darinaparsin] + O=C(CCCCCCC(=O)Nc1ccccc1)NO [Vorinostat] (partner 1 µM)
Summary of the method: (§1)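 The day after seeding in 1536-well plates, lung cancer cell lines were treated by pin tool with a single drug, or with a fixed anchor-drug dose together with five library-drug doses (not always all listed) in √10 steps. After 5 days, a combined fix-and-stain solution (final 0.05% Triton X-100, 1% formaldehyde, 1 ug/ml Hoechst) was added. Nuclei counted on 4× images gave relative viability as treated counts over vehicle counts, reported as the median of duplicate plates.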

QS11 + Tozasertib = compound: C1CC2=C(C1)C=C(C=C2)OC3=NC(=C4C(=N3)N(C=N4)CC5=CC=C(C=C5)C6=CC=CC=C6)N[C@@H](CC7=CC=CC=C7)CO [QS11] + Cc1cc(Nc2cc(N3CCN(C)CC3)nc(Sc3ccc(NC(=O)C4CC4)cc3)n2)n[nH]1 [Tozasertib] (partner 0.1 µM)
Summary of the method: as §1

AZ628 + Alpelisib = compound: CC1=C(C=C(C=C1)NC(=O)C2=CC(=CC=C2)C(C)(C)C#N)NC3=CC4=C(C=C3)N=CN(C4=O)C [AZ628] + Cc1nc(NC(=O)N2CCC[C@H]2C(N)=O)sc1-c1ccnc(C(C)(C)C(F)(F)F)c1 [Alpelisib] (partner 2 µM)
Summary of the method: as §1

[2] = compound: C[As](C)SC[C@H](NC(=O)CC[C@H](N)C(=O)O)C(=O)NCC(=O)O [Darinaparsin] + CC1(C)CCC(c2ccc(Cl)cc2)=C(CN2CCN(c3ccc(C(=O)NS(=O)(=O)c4ccc(N[C@H](CCN5CCOCC5)CSc5ccccc5)c(S(=O)(=O)C(F)(F)F)c4)cc3)CC2)C1 [Navitoclax] (partner 0.5 µM)
Summary of the method: as §1

LCLC-97TM1 showed a relative viability ([1]; first compound 0.08 µM) of 0.882, a relative viability ([1]; first compound 0.8 µM) of 0.862 and a relative viability ([1]; first compound 2.53 µM) of 0.744. For the same cell line, the relative viability ([1]; first compound 8 µM) was 0.895, the relative viability (QS11 + Tozasertib; first compound 0.08 µM) was 0.2 and the relative viability (QS11 + Tozasertib; first compound 0.253 µM) was 0.242. For the same cell line, the relative viability (QS11 + Tozasertib; first compound 2.53 µM) was 0.199, the relative viability (QS11 + Tozasertib; first compound 8 µM) was 0.146 and the relative viability (AZ628 + Alpelisib; first compound 0.08 µM) was 0.279. For the same cell line, the relative viability (AZ628 + Alpelisib; first compound 0.253 µM) was 0.205, the relative viability (AZ628 + Alpelisib; first compound 0.8 µM) was 0.195 and the relative viability (AZ628 + Alpelisib; first compound 2.53 µM) was 0.232. It also gave a relative viability (AZ628 + Alpelisib; first compound 8 µM) of 0.118, a relative viability ([2]; first compound 0.08 µM) of 0.383 and a relative viability ([2]; first compound 0.8 µM) of 0.947. For the same cell line, the relative viability ([2]; first compound 2.53 µM) was 0.398 and the relative viability ([2]; first compound 8 µM) was 0.579.
